Literature values in patent publication US7071337B2, “Benzoimidazole derivatives useful as antiproliferative agents” (Pfizer Inc, priority 2002, dated 2006).

Assays:
[1] = test system: another carcinoma that does not express the EGF receptor; details: athymic nude mice
[2] = test system: transplanted human mammary carcinoma that expresses epidermal growth factor receptor tyrosine kinase (EGFR); details: athymic nude mice

SMILES: O=CN/C=C/c1cc(O)ccc1O [erbstatin]
- growth of carcinoma not expressing the EGF receptor [1]: without effect on the growth
- growth of transplanted human mammary carcinoma expressing EGFR [2]: selectively attenuates the growth
